What is called Ki is a measure of affinity in units of concentration, obtained from inhibition or displacement. In general, Vmax refers to the rate approached at saturating substrate. By Km is commonly meant the substrate concentration at which the rate is half of its maximum.

The values that follow come from ChEMBL document CHEMBL3526017, “Predicting the drug interaction potential of AMG 853, a dual antagonist of the D-prostanoid and chemoattractant receptor-homologous molecule expressed on T helper 2 cells receptors” (Drug Metab Dispos, 2012).

Data set [1] has as its target T1, Cytochrome P450 2J2 (Homo sapiens, UniProt P51589).
T1 sequence (P51589 whole entry): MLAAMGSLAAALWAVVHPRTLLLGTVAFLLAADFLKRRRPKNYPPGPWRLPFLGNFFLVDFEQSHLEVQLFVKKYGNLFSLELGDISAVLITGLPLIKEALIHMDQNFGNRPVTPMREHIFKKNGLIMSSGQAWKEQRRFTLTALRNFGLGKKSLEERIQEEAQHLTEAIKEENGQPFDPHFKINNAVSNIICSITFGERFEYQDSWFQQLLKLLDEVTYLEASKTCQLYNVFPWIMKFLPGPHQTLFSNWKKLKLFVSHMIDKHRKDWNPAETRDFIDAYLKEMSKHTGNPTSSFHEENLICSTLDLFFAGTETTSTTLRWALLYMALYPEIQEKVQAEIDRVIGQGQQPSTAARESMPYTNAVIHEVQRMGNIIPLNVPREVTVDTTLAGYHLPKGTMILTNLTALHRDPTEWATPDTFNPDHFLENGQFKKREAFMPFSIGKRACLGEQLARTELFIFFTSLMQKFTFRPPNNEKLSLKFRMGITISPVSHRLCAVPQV
Description: Inhibition of recombinant CYP2J2 (unknown origin) treated with AMG 853. The class given is ADME.

The target in data set [2] is T1, Cytochrome P450 2J2. Description: Drug metabolism assessed as recombinant CYP2J2 (unknown origin)-mediated compound formation treated with AMG 853 at 10 uM after 30 mins by LC-MS/MS analysis. Format: ADME. The note with it: recombinant enzyme, 0.5 h.
Data set [3] addresses T2, Cytochrome P450 3A7 (Homo sapiens, UniProt P24462). The data set can be described thus: Drug metabolism assessed as recombinant CYP3A7 (unknown origin)-mediated compound formation treated with AMG 853 at 10 uM after 30 mins by LC-MS/MS analysis. The conditions noted are these: recombinant enzyme, 0.5 h. Format: ADME.
The target in data set [4] is T3, Cytochrome P450 2C8 (Homo sapiens, UniProt P10632).
T3 sequence (P10632 whole entry): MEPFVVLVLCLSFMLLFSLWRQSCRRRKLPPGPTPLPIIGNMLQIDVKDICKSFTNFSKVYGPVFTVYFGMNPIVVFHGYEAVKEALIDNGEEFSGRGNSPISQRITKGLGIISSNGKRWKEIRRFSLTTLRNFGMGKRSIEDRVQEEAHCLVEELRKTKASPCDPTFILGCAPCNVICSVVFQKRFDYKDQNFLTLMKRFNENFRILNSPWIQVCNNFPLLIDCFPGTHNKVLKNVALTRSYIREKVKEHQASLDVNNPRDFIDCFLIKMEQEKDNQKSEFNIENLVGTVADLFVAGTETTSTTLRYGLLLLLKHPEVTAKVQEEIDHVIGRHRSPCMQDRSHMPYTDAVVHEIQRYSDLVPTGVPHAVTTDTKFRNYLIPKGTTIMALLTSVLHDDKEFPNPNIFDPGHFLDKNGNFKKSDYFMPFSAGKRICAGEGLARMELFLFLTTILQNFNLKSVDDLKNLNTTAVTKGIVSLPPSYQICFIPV
Description: Drug metabolism assessed as recombinant CYP2C8 (unknown origin)-mediated compound formation measured per nmol protein treated with AMG 853 after 15 mins by LC-MS/MS analysis. Format: ADME. The note with it: recombinant enzyme, 0.25 h.

Data set [5] concerns the target T2, Cytochrome P450 3A7. The data set can be described thus: Drug metabolism assessed as recombinant CYP3A7 (unknown origin)-mediated compound formation measured per nmol protein treated with AMG 853 after 15 mins by LC-MS/MS analysis. Format: ADME. The note with it: recombinant enzyme, 0.25 h.
The target of data set [6] is T3, Cytochrome P450 2C8. Description: Drug metabolism assessed as recombinant CYP2C8 (unknown origin)-mediated compound formation treated with AMG 853 at 10 uM after 30 mins by LC-MS/MS analysis. Format: ADME. The conditions noted are these: recombinant enzyme, 0.5 h.
For data set [7], the target named is T1, Cytochrome P450 2J2. The data set can be described thus: Drug metabolism assessed as recombinant CYP2J2 (unknown origin)-mediated compound formation measured per nmol protein treated with AMG 853 after 15 mins by LC-MS/MS analysis. The class given is ADME. The note with it: recombinant enzyme, 0.25 h.
Data set [8] has as its target T4, Cytochrome P450 3A5 (Homo sapiens, UniProt P20815). The data set can be described thus: Drug metabolism assessed as recombinant CYP3A5 (unknown origin)-mediated compound formation treated with AMG 853 at 10 uM after 30 mins by LC-MS/MS analysis. Format: ADME. The conditions noted are these: recombinant enzyme, 0.5 h.
Data set [9] is described as follows: Drug metabolism in human liver microsomes assessed as CYP3A5*1/*1-mediated compound formation treated with AMG 853 after 15 mins by LC-MS/MS analysis. The class given is ADME. The conditions noted are these: 0.25 h.
The target of data set [10] is T5, Cytochrome P450 3A4 (Homo sapiens, UniProt P08684). Description: Drug metabolism assessed as recombinant CYP3A4 (unknown origin)-mediated compound formation measured per nmol protein treated with AMG 853 after 15 mins by LC-MS/MS analysis. Format: ADME. The note with it: recombinant enzyme, 0.25 h.
In data set [11] the target is T5, Cytochrome P450 3A4. Description: Drug metabolism assessed as recombinant CYP3A4 (unknown origin)-mediated compound formation treated with AMG 853 at 10 uM after 30 mins by LC-MS/MS analysis. Format: ADME. The note with it: recombinant enzyme, 0.5 h.
A short description of data set [12]: Drug metabolism in human liver microsomes assessed as […]-mediated compound formation treated with AMG 853 after 15 mins by LC-MS/MS analysis. Format: ADME. The note with it: 0.25 h.
For data set [13], the target named is T3, Cytochrome P450 2C8. Description: Inhibition of recombinant CYP2C8 (unknown origin) treated with AMG 853. Format: ADME.
Data set [14] deals with T4, Cytochrome P450 3A5. Description: Drug metabolism assessed as recombinant CYP3A5 (unknown origin)-mediated compound formation measured per nmol protein treated with AMG 853 after 15 mins by LC-MS/MS analysis. Format: ADME. The note with it: recombinant enzyme, 0.25 h.
Data set [15] addresses Cytochrome P450 2C19 (Homo sapiens, UniProt P33261). Description: Drug metabolism assessed as recombinant CYP2C19 (unknown origin)-mediated compound formation treated with AMG 853 at 10 uM after 30 mins by LC-MS/MS analysis. The conditions noted are these: recombinant enzyme, 0.5 h. Format: ADME.
The target of data set [16] is CYP1A2 (Homo sapiens, UniProt P05177). The data set can be described thus: Induction of CYP1A2 in human hepatocytes using phenacetin as substrate at 0.3 to 30 uM treated every 24 hrs for 2 days measured on day 5 by LC-MS/MS analysis relative to control. The class given is ADME, cell-based, Hepatocyte. The conditions noted are these: probe phenacetin, read-out: FC.

Data set [17] has as its target CYP2B6 (Homo sapiens, UniProt P20813). The data set can be described thus: Induction of CYP2B6 in human hepatocytes using bupropion as substrate at 0.3 to 30 uM treated every 24 hrs for 2 days measured on day 5 by LC-MS/MS analysis relative to control. The class given is ADME, cell-based, Hepatocyte. The conditions noted are these: probe bupropion, read-out: FC.

T4 sequence (P20815 whole entry): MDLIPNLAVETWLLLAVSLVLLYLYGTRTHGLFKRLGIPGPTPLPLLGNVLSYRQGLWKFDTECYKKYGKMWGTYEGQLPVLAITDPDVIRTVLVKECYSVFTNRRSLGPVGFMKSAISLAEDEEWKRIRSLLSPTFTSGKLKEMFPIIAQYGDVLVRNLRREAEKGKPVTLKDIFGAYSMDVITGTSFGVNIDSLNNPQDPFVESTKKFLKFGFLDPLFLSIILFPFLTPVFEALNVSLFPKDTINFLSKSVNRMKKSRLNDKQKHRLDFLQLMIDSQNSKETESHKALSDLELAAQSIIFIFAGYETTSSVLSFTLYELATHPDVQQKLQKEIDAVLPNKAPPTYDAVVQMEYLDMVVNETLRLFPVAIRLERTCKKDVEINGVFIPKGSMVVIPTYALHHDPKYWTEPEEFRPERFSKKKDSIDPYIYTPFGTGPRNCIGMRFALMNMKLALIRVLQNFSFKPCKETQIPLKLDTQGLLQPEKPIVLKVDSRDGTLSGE
T2 sequence (P24462 whole entry): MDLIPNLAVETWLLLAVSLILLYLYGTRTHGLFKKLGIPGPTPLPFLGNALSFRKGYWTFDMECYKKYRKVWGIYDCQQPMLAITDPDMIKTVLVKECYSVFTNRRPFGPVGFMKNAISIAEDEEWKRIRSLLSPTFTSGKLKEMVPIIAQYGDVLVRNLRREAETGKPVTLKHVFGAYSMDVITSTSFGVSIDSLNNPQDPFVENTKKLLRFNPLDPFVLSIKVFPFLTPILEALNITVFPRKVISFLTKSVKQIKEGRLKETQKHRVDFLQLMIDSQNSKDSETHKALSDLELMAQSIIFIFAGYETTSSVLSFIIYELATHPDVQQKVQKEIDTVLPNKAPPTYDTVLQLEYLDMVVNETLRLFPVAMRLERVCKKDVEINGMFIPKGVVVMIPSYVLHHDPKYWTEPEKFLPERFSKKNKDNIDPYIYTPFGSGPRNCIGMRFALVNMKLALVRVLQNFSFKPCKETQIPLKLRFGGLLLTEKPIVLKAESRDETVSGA
T5 sequence (P08684 whole entry): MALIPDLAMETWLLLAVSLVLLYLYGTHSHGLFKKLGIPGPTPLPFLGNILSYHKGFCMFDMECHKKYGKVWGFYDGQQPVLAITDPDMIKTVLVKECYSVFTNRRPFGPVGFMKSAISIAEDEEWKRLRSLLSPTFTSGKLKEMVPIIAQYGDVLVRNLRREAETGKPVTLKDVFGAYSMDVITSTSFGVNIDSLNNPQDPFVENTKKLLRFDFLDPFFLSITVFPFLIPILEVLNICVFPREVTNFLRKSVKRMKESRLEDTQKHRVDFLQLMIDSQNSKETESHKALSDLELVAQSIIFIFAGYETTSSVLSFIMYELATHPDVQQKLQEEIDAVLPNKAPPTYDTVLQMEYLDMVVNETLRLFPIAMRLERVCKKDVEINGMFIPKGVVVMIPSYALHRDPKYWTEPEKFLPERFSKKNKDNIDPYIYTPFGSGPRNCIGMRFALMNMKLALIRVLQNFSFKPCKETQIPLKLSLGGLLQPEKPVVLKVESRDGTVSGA
Chain of CYP2B6 (P20813 whole entry): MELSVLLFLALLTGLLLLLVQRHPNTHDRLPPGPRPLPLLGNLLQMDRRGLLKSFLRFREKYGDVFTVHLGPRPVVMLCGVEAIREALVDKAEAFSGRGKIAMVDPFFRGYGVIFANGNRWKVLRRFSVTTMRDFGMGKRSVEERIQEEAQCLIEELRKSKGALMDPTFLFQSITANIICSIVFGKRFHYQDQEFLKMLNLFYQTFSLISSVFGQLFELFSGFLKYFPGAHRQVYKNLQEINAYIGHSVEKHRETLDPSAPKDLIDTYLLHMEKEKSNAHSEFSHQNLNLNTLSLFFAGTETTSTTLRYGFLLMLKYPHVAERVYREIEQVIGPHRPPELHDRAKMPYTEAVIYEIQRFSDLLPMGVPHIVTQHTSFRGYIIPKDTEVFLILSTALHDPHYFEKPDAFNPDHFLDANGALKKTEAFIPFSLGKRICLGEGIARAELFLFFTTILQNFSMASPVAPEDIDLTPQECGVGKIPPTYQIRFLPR
Chain of CYP1A2 (P05177 whole entry): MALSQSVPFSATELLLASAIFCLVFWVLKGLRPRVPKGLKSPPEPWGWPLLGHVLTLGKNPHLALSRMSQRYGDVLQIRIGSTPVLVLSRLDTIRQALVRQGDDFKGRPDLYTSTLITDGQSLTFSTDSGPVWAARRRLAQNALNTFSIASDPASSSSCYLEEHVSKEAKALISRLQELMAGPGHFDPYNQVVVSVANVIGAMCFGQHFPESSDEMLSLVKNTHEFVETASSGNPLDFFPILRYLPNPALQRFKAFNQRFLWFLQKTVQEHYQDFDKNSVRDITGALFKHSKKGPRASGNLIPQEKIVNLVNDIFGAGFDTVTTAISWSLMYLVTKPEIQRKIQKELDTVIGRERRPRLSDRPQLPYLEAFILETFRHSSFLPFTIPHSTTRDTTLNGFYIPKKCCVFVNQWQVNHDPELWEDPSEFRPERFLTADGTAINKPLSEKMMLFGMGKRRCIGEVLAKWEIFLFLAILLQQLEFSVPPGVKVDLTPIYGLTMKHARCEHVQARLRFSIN
Chain of Cytochrome P450 2C19 (P33261 whole entry): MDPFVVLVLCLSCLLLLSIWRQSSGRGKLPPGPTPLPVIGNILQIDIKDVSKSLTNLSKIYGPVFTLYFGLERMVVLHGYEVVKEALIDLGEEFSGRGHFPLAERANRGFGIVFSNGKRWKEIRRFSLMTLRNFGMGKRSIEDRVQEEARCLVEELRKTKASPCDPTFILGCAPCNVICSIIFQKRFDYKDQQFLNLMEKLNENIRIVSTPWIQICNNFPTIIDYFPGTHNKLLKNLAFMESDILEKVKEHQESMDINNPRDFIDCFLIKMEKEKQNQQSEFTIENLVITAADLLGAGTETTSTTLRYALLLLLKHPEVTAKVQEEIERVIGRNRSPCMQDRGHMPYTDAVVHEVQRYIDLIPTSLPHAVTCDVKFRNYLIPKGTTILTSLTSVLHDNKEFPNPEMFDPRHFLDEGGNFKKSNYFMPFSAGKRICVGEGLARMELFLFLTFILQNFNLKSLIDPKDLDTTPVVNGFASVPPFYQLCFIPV

Take `CC(C)(CO)NC(=O)c1ccc(Oc2cc(F)c(CC(=O)O)cc2Cl)c(NS(=O)(=O)c2ccc(C3CC3)cc2Cl)c1`: the Ki worked out at 240 µM in data set [1] and 31.7 µM in [13]. In addition, the Drug metabolism result in data set [2], in data set [3], in data set [6], in data set [8] and in data set [11] was “metabolite_detected” in each case. For the same molecule, the Vmax in data set [4] amounted to 0.031 nmol/min; in data set [5], 0.26 nmol/min; in [7], 0.584 nmol/min; in [9], 0.044 nmol/min/mg; in data set [10], 0.96 nmol/min; in [12], 0.023 nmol/min/mg. In [14], the Vmax came to 0.221 nmol/min. The Km in data set [9] was 2.75 µM; in data set [12] it was 4.11 µM.

Regarding `CC(C)(C)NC(=O)c1ccc(Oc2cc(F)c(CC(=O)O)cc2Cl)c(NS(=O)(=O)c2ccc(C3(O)CC3)cc2Cl)c1`, the Drug metabolism result in data set [2], in [3], in [6], in data set [8], in data set [15] and in data set [11] was “metabolite_detected” each time. Also, the maximal velocity (Vmax) in [4] is reported as 0.25 nmol/min; in [5], 0.286 nmol/min; in data set [7], 0.299 nmol/min; in data set [9], 0.317 nmol/min/mg; in data set [10], 1.41 nmol/min; in data set [12], 0.296 nmol/min/mg. Further, the maximum rate (Vmax) in data set [14] came out at 1.13 nmol/min. The Km in [9] amounted to 38.5 µM; in [12], 35.2 µM.

Regarding `COc1ccc2[nH]c([S+]([O-])Cc3ncc(C)c(OC)c3C)nc2c1` (stereo not drawn) [OMEPRAZOLE], the fold induction at 48 h, up to 30 µM in [16] came out at 47.4.

As for `CCC1(c2ccccc2)C(=O)NC(=O)NC1=O` [PHENOBARBITAL], the fold induction at 48 h, up to 30 µM in data set [17] turned out to be 22.1.
